Laboratory results: US8987285B2, “Pharmaceutical compositions, dosage forms and new forms of the compound of formula (I), and methods of use thereof” (Portola Pharmaceuticals, Inc., priority 2010, dated 2015)

Key:
[1] = Saturation solubility, shake-flask with UV quantification; type: physicochemical; details: for final pH measured of the supernatant / Saturation solubility: listed as The compound of formula (I), form A
Procedure: The FaSSIF and FeSSIF solutions were prepared using Phares SIF powder according to the formulation instructions and the SGF solution was prepared using the guidelines provided. […] The pH and temperature of the supernatant were measured on a SiriusT3 instrument.

[2] = Solubility-excipient screening (Sirius CheqSol, 0.15 M aqueous KCl); type: physicochemical; details: drug:excipient 1:1 by weight, Form A titrated from pH 12 with 0.5 M HCl
Procedure: In all experiments, the compound of formula (II) and excipient were present at a 1:1 weight ratio. For each excipient, Form A of the potassium salt was titrated at an initial concentration of ˜1 mg/ml from pH 12 to low pH with 0.5 M HCl. A UV-turbidity probe was used to detect the presence of sample precipitate and all experiments were carried out according to standard CheqSol procedure.

[3] = Wettability: contact angle measurement with water on pressed powder; type: physicochemical; details: for Contact angle: water, listed as A, in ° (unit assumed)
Procedure: Contact angel instrument: EasyDrop DSA15E (Krüss, Hamburg, Germany)
Syringe: NE44, diameter of needle 0.5 mm (Krüss, Hamburg, Germany)
The powder was pressed (approx 50 mg powder, 3 tons, 2 min) in tablets and analyzed by contact angle measurement. The angel between the solid and the liquid is measured after 0 and up to 60 seconds using water.
All determinations used the above method and the limit for the standards measurements are well within the given limits.

[4] = Super-saturation measurement (CheqSol): intrinsic and kinetic solubility; type: physicochemical
Text: Anal. Chem. 2005, 77(4), 983-990; 2—Box, K J. Völgyi, G. Baka, E. Stuart, M. Takács-Novák, K. Corner, J E A. Equilibrium vs. kinetic measurements of aqueous solubility, and the ability of compounds to supersaturate in solution—a validation study. J. Pharm. Sci. 2006, 95, 1298-1307; 3—Sköld, C. Winiwarter, S. Johan Wernevik, J. Bergström, F. Engström, L. Allen, R. Box, K. Corner, J. Mole, J. Hallberg, A. Lennernäs, H. Lundstedt, T. Ungell, A-L. Karlén, A. Presentation of a Structurally Diverse and Commercially Available Drug Data Set for Correlation and Benchmarking Studies. J. Med. Chem. 2006, 49(23), 6660-6671;
. Med. Chem.; 2007, 50 (5), 979-983; 5—Llinás, A. Box, K J. Burley, J C. Glen, R C. Goodman, J M. J. A new method for the reproducible generation of polymorphs: two forms of Sulindac with very different solubilities. […] 6—Box K et al, Using Measured pKa, Log P and Solubility to Investigate Supersaturation and Predict BCS Class, Current Drug Metabolism, 2008, 9, 869-878]
1—kinetic solubility is the concentration of a compound in solution at the time when an induced precipitate first appears
2—equilibrium solubility (also called thermodynamic solubility) is the concentration of compound in a saturated solution when excess solid is present, and solution and solid are at equilibrium
3—intrinsic solubility [Hörter, D.; Dressman, J. B. Adv. Drug Deliv. Rev., 1997, 25, 3-14] is the equilibrium solubility of the free acid or base form of an ionisable compound at a pH where it is fully un-ionized
The super-saturation ratio is calculated as the ratio of kinetic solubility divided by the Intrinsic Solubility.

[5] = cited from earlier work

Structure (SMILES): CNc1cc2[nH]c(=O)n(-c3ccc(NC(=O)[N-]S(=O)(=O)c4ccc(Cl)s4)cc3)c(=O)c2cc1F.[K+] [Form A]
- final pH measured of the supernatant ([1]; FaSSIF pH 6.5-1w): 6.93
- Saturation solubility ([1]; FeSSIF pH 5.0-1w, mean N = 2): 2.76 µg/mL
- final pH measured of the supernatant ([1]; FeSSIF pH 5.0-1w): 5.15
- Saturation solubility ([1]; Na Phosphate pH 6.8, mean N = 2): 20.25 µg/mL
- final pH measured of the supernatant ([1]; Na Phosphate pH 6.8): 6.94
- Saturation solubility ([1]; Na-Acetate pH 4.5, mean N = 2): 0.48 µg/mL
- final pH measured of the supernatant ([1]; Na-Acetate pH 4.5): 4.81
- Saturation solubility ([1]; SGF pH 2.1, mean N = 2): 2.24 µg/mL
- final pH measured of the supernatant ([1]; SGF pH 2.1): 4.74
- solubility at 72 h ([1]; pH 6.5, fassif, thermodynamic from solid, FaSSIF pH 6.5-1w, mean N = 2): 107 µg/mL
- pH first precipitation occurs [2]: 5.3
- Kinetic solubility ([2]; ~1 mg/ml): 12.57 µM
- surface hydrophobilicity from contact angle ([3]; critical angle around 50° (>50° hydrophob <50° hydrophil), listed as polymorph A): hydrophob
- Contact angle ([3]; 0 sec): 78.8
- Contact angle ([3]; 30 sec): 53.3
- Contact angle ([3]; 60 sec): 51.0
- solubility kinetic ([4]; kinetic from dmso stock, CheqSol): 6.57 µg/mL
- ratio super saturation ([4]; kinetic solubility divided by intrinsic solubility, listed as K-salt-Form A): 412
- solubility ([4]; thermodynamic from solid, CheqSol): 0.0159 µg/mL

Structure (SMILES): NCCCC[C@H](N)C(=O)O [Lysine]
- Aqueous Solubility [5]: free soluble
